Reference: patent publication US10898548B2, “Modulators of protein tyrosine phosphatase and uses thereof” (LEUVAS THERAPEUTICS, priority 2015, dated 2021)

Key:
PTPRG = experiment: in vitro phosphatase activity (pNPP) on membranes from human primary monocytes; type: biochemical; conditions: monocyte membranes; control peptide, concentration not given; DMSO 7.25
Procedure: We first tested the biochemical activity of the fusion peptide by performing in vitro assays of phosphatase activity on purified membranes isolated from human primary monocytes compared to membranes isolated from human primary polymorphonuclear cells (PMNs). Human primary monocytes and polymorphonuclear (PMNs) cells were isolated from whole blood of healthy donors. Purity of monocyte preparation was evaluated by flow cytometry after staining with fluorescein isothiocyanate (FITC)-conjugated anti-CD14 antibody and was more than 95%. Isolated cells were kept at 37° C. in standard adhesion buffer (PBS, 1 mM CaCl2, 1 mM MgCl2, 10% FBS, pH 7.2) and used within 1 h.
The phosphatase activity in membrane fractions isolated from human monocytes and PMNs was assessed. […] Cells were then sonicated twice (6 sec, 15% W) and centrifuged at 2000 rpm for 10 minutes. The supernatants were collected and centrifuged at 28000 rpm for 60 minutes. After centrifugation, the supernatants were discarded, and the membrane pellets were dissolved in 20 mM tris pH 7.4. Equal amount of membrane fractions were added to pNPP buffer containing 20 mM tris, 10 mM DTT and 2 mM pNPP. Following, DMSO and peptides were added. After 30 minutes of incubation, levels of de-phosphorylation, in presence or absence of orthovanadate, were measured at 405 nm by a plate reader. Values are absorbance at 405 nn shown as percent fold increase over the blank; mean values of three experiments are shown. *p<0.001 vs vehicle (DMSO).

U251 GBM cells = experiment: MTT survival assay, U251 GBM cells; type: cell-based; conditions: P1 or P1-WD 50 uM
Procedure: Briefly, U251 GBM cells, normal primary cortical murine neurons and a mixed culture of murine microglia and astrocytes were treated for 24, 48 and 72 hours with no treatment (control), delivery peptide (P1 or TAT) or increasing concentrations of P1-WD or TAT-ICD. Cell viability and survival was measured using the MTT assay, a colorimetric assay for assessing cell metabolic activity set up under conditions where the absorption reflects the number of viable cells present (Table 21 and 22) and expressed as relative absorption at 570 nm. Early apoptosis was measured using VYBRANT DyeCycle Violet stain (Molecular Probes), a DNA-selective, cell membrane-permeant dye that can distinguish the compacted state of the nuclear chromatin in apoptotic cells as determined by flow cytometry and presented as the percent of cells that are apoptotic (Table 23 and 24). The actual number of cells following treatment with TAT-ICD or TAT alone (Table 25) was determined using flow cytometry compared to an input of 5,000 cells at time zero. To confirm apoptosis the TUNEL labeling assay, which detects DNA strand breaks in apoptotic cells by fluorescence microscopy, was also used to examine U251 cells treated with the PTPRG WD. Briefly, the assay used an optimized terminal transferase ([…]) to label 3′OH ends in genomic DNA with TMR-dUTP, thus allowing the measurement and quantification of cell death by apoptosis. U251 cells were pretreated for 1, 3 and 6 hours with 50 μM P1-WD. Then cells were fixed and permeabilized, incubated with TUNEL reaction mixture for 1 h at RT, and then stained with DAPI (for nuclei detection) and with Alexa670-Phalloidin (to detect actin in cell membranes). After the staining steps, cells were visualized with a confocal microscope.

“P1: Penetratin delivery peptide, 16 aa RQIKIWFQNRRMKWKK (SEQ ID 4), control [reference compound]” was tested, and the “phosphatase activity, absorbance at 405 nm as percent fold increase over the blank” value (PTPRG) was 16.00%, the “MTT relative absorption at 570 nM” value (U251 GBM cells; 24 hours, control 821) was 600 and the “MTT relative absorption at 570 nM” value (U251 GBM cells; 48 hours, control 1943) was 1743. For the same substance, the “MTT relative absorption at 570 nM” value (U251 GBM cells; 72 hours, control 2556) was 2294.
